The record followed here is US9771341B2, “Piperazine carbamates and methods of making and using same” (Abide Therapeutics, Inc., priority 2015, dated 2017).

Assay [1] addresses T1, ABHD6 (Mus musculus, UniProt Q8R2Y0).
T1 construct: Proteomes (mouse brain membrane fraction or cell lysates); from tissue; host or cells: mouse brain membrane fraction (or unspecified cell lysates)
T1 sequence (Q8R2Y0 1-336): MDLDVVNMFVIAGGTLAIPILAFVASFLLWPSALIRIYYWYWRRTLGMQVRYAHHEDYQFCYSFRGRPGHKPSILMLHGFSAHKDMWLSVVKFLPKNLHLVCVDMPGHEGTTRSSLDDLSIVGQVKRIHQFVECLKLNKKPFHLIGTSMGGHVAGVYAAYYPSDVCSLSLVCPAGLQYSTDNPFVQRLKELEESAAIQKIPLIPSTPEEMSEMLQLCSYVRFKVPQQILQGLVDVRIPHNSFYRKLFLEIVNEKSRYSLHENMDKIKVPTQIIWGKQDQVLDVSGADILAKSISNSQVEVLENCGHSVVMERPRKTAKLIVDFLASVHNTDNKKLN
Kind of assay: Mouse brain proteomes from inhibitor treated mice, ABHD6. Type of assay: in vivo. To be noted: 5 mg/kg oral gavage, C57Bl/6J mice, brain proteome 4 h after administration. As to the method: (§1) Preparation of Mouse Brain Proteomes from Inhibitor Treated Mice.
(§2) Inhibitors were administered to wild-type C57Bl/6J by oral gavage in a vehicle of polyethylene glycol.

Assay [2] concerns the target T2, FAAH (Mus musculus, UniProt O08914).
T2 construct: Proteomes (mouse brain membrane fraction or cell lysates); from tissue; host or cells: mouse brain membrane fraction (or unspecified cell lysates)
T2 sequence (O08914 1-579): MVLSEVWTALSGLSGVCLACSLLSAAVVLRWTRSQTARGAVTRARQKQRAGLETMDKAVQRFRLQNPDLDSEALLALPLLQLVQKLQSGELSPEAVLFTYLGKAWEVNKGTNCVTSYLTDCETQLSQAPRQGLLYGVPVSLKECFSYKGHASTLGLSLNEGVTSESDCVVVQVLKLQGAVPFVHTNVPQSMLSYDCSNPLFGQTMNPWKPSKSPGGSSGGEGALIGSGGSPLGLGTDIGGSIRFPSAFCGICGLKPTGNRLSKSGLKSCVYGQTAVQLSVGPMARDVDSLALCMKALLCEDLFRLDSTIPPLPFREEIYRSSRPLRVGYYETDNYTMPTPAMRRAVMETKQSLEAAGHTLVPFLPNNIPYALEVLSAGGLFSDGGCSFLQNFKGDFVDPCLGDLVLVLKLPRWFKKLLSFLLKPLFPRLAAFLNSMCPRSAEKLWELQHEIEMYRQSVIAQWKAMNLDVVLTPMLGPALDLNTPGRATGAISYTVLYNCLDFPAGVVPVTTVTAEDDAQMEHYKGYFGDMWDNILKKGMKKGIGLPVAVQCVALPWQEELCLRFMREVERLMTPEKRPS
Kind of assay: In vitro competitive activity-based protein profiling (mouse), FAAH. Type of assay: biochemical. To be noted: for IC50: mouse brain membrane fraction or cell lysates, 30 min preincubation at 37° C, FP-Rh probe; for inhibition at 1 µM: mouse proteome, in vitro. In short, it runs like this:
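Mouse brain membrane fraction or cell lysates (1.0 mg/mL protein) preincubated with inhibitors 30 min at 37° C, then FP-Rh probe 30 min at 37° C. SDS-PAGE fluorescence band intensity gave FAAH activity.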

Assay [3] addresses T2, FAAH. Put plainly: Mouse brain proteomes from inhibitor treated mice, FAAH. The assay is classed as in vivo. To be noted: 5 mg/kg oral gavage, C57Bl/6J mice, brain proteome 4 h after administration. As to the method:
as §1
Inhibitors were administered to wild-type C57Bl/6J by oral gavage in a vehicle of polyethylene glycol. Each animal was sacrificed 4 h following administration and brain proteomes were prepared and analyzed according to previously established methods (See Niphakis, M. J., et al. (2011) ACS Chem. Neurosci. and Long, J. Z., et al. Nat. Chem. Biol. 5:37-44)

The target in assay [4] is T3, MAGL (Mus musculus, UniProt O35678).
T3 construct: Proteomes (mouse brain membrane fraction or cell lysates); from tissue; host or cells: mouse brain membrane fraction (or unspecified cell lysates)
T3 sequence (O35678 1-303): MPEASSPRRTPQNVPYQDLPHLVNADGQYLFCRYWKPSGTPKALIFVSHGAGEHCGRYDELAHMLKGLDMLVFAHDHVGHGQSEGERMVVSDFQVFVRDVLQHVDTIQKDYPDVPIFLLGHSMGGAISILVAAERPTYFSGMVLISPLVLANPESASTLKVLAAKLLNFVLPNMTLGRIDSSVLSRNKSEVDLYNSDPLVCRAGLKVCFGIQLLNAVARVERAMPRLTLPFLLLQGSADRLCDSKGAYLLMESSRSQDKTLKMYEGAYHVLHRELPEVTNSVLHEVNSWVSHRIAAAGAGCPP
Put plainly: Mouse brain proteomes from inhibitor treated mice, MAGL. Type of assay: in vivo. To be noted: 5 mg/kg oral gavage, C57Bl/6J mice, brain proteome 4 h after administration. As to the method: as §1, §2

Assay [5] concerns the target T3, MAGL. Put plainly: In vitro competitive activity-based protein profiling (mouse), MAGL. The assay is classed as biochemical. To be noted: for IC50: mouse brain membrane fraction or cell lysates, 30 min preincubation at 37° C, FP-Rh probe; for inhibition at 1 µM: mouse proteome, in vitro, read-out: % Inhibition at 1 μM MAGL. The method, then: (§3) In Vitro Competitive Activity-Based Protein Profiling (Mouse).
(§4) Proteomes (mouse brain membrane fraction or cell lysates) (50 μL, 1.0 mg/mL total protein concentration) were preincubated with varying concentrations of inhibitors at 37° C. After 30 min, FP-Rh (1.0 μL, 50 μM in DMSO) was added and the mixture was incubated for another 30 min at 37° C. Reactions were quenched with SDS loading buffer (50 μL-4×) and run on SDS-PAGE.

The target in assay [6] is T1, ABHD6. Put plainly: In vitro competitive activity-based protein profiling (mouse), ABHD6. To be noted: for IC50: mouse brain membrane fraction or cell lysates, 30 min preincubation at 37° C, FP-Rh probe; for inhibition at 1 µM: mouse proteome, in vitro, read-out: % Inhibition at 1 μM ABHD6. The assay is classed as biochemical. As to the method:
as §3, §4

SMILES strings stand for the structures.

Regarding `C#CCO[C@H]1CCN(c2cc(Cl)ccc2CN2CCN(C(=O)OC(C(F)(F)F)C(F)(F)F)CC2)C1` [Example 3, 1,1,1,3,3,3-hexafluoropropan-2-yl (S)-4-(4-chloro-2-(3-(prop-2-yn-1-yloxy)pyrrolidin-1-yl)benzyl)piperazine-1-carboxylate], the values for the inhibition at 5 mg/kg against ABHD6 [1], at FAAH [3] and against MAGL [4] were less than 25%, less than 25% and greater than 75%, respectively. Also, the IC50 – broadly, the point on the concentration scale where inhibition reaches its midpoint – on FAAH [2] is greater than 1000 nM; on MAGL [5], less than 100 nM; at ABHD6 [6], greater than 1000 nM.
With `O=C(OC(C(F)(F)F)C(F)(F)F)N1CCN(Cc2ccc(Cl)cc2N2CC[C@H](CF)C2)CC1` [Example 4, 1,1,1,3,3,3-hexafluoropropan-2-yl (S)-4-(4-chloro-2-(3-(fluoromethyl)pyrrolidin-1-yl)benzyl)piperazine-1-carboxylate], the inhibition (usually the share of the control response that was lost under treatment) at 5 mg/kg is less than 25% at ABHD6 [1], less than 25% against FAAH [3] and greater than 75% at MAGL [4]. The values for the inhibition at 1 µM at FAAH [2], at MAGL [5] and at ABHD6 [6] were less than 25%, greater than 75% and less than 25%, respectively. Also, the IC50 at FAAH [2] was greater than 1000 nM; at MAGL [5], less than 100 nM; on ABHD6 [6], greater than 1000 nM.
On to `COc1c(CN2CCN(C(=O)OC(C(F)(F)F)C(F)(F)F)CC2)cccc1CN1CCC(F)(F)CC1` [Example 16, 1,1,1,3,3,3-hexafluoropropan-2-yl 4-(3-((4,4-difluoropiperidin-1-yl)methyl)-2-methoxybenzyl)piperazine-1-carboxylate], for which the inhibition at 5 mg/kg on ABHD6 [1] was 25 to 75%; against FAAH [3], less than 25%; against MAGL [4] it was greater than 75%. Moreover, the values for the inhibition at 1 µM at FAAH [2], at MAGL [5] and at ABHD6 [6] were less than 25%, greater than 75% and greater than 75%, respectively. For the same compound, the IC50 on FAAH [2] is greater than 1000 nM; on MAGL [5] it was less than 100 nM; at ABHD6 [6] it was 100 to 1000 nM.
On FAAH [2], `O=C(OC(C(F)(F)F)C(F)(F)F)N1CCN(Cc2ccc(Cl)cc2N2CC3CCC(C2)O3)CC1` [Example 30, 1,1,1,3,3,3-hexafluoropropan-2-yl 4-(2-(8-oxa-3-azabicyclo[3.2.1]octan-3-yl)-4-chlorobenzyl)piperazine-1-carboxylate] gave an IC50 greater than 1000 nM. This compound also gave an inhibition at 5 mg/kg against FAAH [3] of less than 25%.
On FAAH [2], `O=C(OC(C(F)(F)F)C(F)(F)F)N1CCN(Cc2ccc(C(F)(F)F)cc2N2C3CCC2COC3)CC1` [Example 58, 1,1,1,3,3,3-hexafluoropropan-2-yl 4-(2-(3-oxa-8-azabicyclo[3.2.1]octan-8-yl)-4-(trifluoromethyl)benzyl)piperazine-1-carboxylate] yielded an inhibition at 1 µM of less than 25% and an IC50 greater than 1000 nM. In addition, the inhibition at 5 mg/kg against FAAH [3] is less than 25%.
On FAAH [2], `O=C(OC(C(F)(F)F)C(F)(F)F)N1CCN(Cc2ccc(C(F)(F)F)cc2N2CC3CCC(C2)O3)CC1` [Example 59, 1,1,1,3,3,3-hexafluoropropan-2-yl 4-(2-(8-oxa-3-azabicyclo[3.2.1]octan-3-yl)-4-(trifluoromethyl)benzyl)piperazine-1-carboxylate] returned an inhibition at 1 µM of less than 25% and a 50% inhibitory concentration (IC50) greater than 1000 nM. The same compound came in with an inhibition at 5 mg/kg against FAAH [3] of less than 25%.
`O=C(O)C1CCN(c2cc(CN3CCN(C(=O)OC(C(F)(F)F)C(F)(F)F)CC3)cc(C(F)(F)F)c2)C1` (centres unmarked) [Example 89, 1-(3-((4-(((1,1,1,3,3,3-hexafluoropropan-2-yl)oxy)carbonyl)piperazin-1-yl)methyl)-5-(trifluoromethyl)phenyl)pyrrolidine-3-carboxylic acid]: the inhibition at 1 µM on FAAH [2] was less than 25%; at MAGL [5] it was greater than 75%; on ABHD6 [6] it was greater than 75%. The IC50 at FAAH [2] is greater than 1000 nM; on MAGL [5] it was 100 to 1000 nM; on ABHD6 [6] it was less than 100 nM.
Consider `O=C(OC(C(F)(F)F)C(F)(F)F)N1CCN(Cc2cc(N3CCC(CO)C3)cc(C(F)(F)F)c2)CC1` (centres unmarked) [Example 90, 1,1,1,3,3,3-hexafluoropropan-2-yl 4-(3-(3-(hydroxymethyl)pyrrolidin-1-yl)-5-(trifluoromethyl)benzyl)piperazine-1-carboxylate], for which the inhibition at 1 µM at FAAH [2] is less than 25%; on MAGL [5] it was greater than 75%; at ABHD6 [6], greater than 75%. Further, the IC50 on FAAH [2] was greater than 1000 nM; on MAGL [5] it was less than 100 nM; on ABHD6 [6], 100 to 1000 nM.
Consider `O=C(OC(C(F)(F)F)C(F)(F)F)N1CCN(Cc2cc(N3CCC(CO)CC3)cc(C(F)(F)F)c2)CC1` [Example 91, 1,1,1,3,3,3-hexafluoropropan-2-yl 4-(3-(4-(hydroxymethyl)piperidin-1-yl)-5-(trifluoromethyl)benzyl)piperazine-1-carboxylate], for which the inhibition at 1 µM at FAAH [2] was less than 25%; on MAGL [5], greater than 75%; at ABHD6 [6], greater than 75%. For the same compound, the concentration for half-maximal inhibition (IC50) at FAAH [2] was greater than 1000 nM; at MAGL [5] it was 100 to 1000 nM; at ABHD6 [6], 100 to 1000 nM.
As to `O=C(O)C1CN(c2cc(CN3CCN(C(=O)OC(C(F)(F)F)C(F)(F)F)CC3)cc(C(F)(F)F)c2)CCO1` (centres unmarked) [Example 92, 4-(3-((4-(((1,1,1,3,3,3-hexafluoropropan-2-yl)oxy)carbonyl)piperazin-1-yl)methyl)-5-(trifluoromethyl)phenyl)morpholine-2-carboxylic acid], the inhibition at 1 µM was less than 25% on FAAH [2], greater than 75% on MAGL [5] and less than 25% at ABHD6 [6]. Also, the values for the half-maximal inhibitory concentration (IC50) on FAAH [2], on MAGL [5] and on ABHD6 [6] were greater than 1000 nM, less than 100 nM and greater than 1000 nM, respectively.
Regarding `O=C(O)C(=O)c1cc(CN2CCN(C(=O)OC(C(F)(F)F)C(F)(F)F)CC2)cc(C(F)(F)F)c1` [Example 93, 2-(3-((4-(((1,1,1,3,3,3-hexafluoropropan-2-yl)oxy)carbonyl)piperazin-1-yl)methyl)-5-(trifluoromethyl)phenyl)-2-oxoacetic acid], the inhibition at 1 µM on FAAH [2] is less than 25%; at MAGL [5], greater than 75%; on ABHD6 [6], greater than 75%. The IC50 was greater than 1000 nM at FAAH [2], less than 100 nM at MAGL [5] and 100 to 1000 nM at ABHD6 [6].
For `O=C(O)C1CCN(c2cc(CN3CCN(C(=O)OC(C(F)(F)F)C(F)(F)F)CC3)cc(C(F)(F)F)c2)CC1` [Example 94, 1-(3-((4-(((1,1,1,3,3,3-hexafluoropropan-2-yl)oxy)carbonyl)piperazin-1-yl)methyl)-5-(trifluoromethyl)phenyl)piperidine-4-carboxylic acid], the inhibition at 1 µM was less than 25% at FAAH [2], 25 to 75% at MAGL [5] and greater than 75% on ABHD6 [6]. In addition, the results for the concentration for half-maximal inhibition (IC50) on FAAH [2], on MAGL [5] and on ABHD6 [6] were greater than 1000 nM, 100 to 1000 nM and less than 100 nM, respectively.
